{"source": "paper PMC9305750", "about": "(Chemmedchem, 2022)", "key": {"[1]": {"biological_target": "T1, human Nurr1 ligand binding domain (LBD) fused to the Gal4 DNA binding domain (Homo sapiens, UniProt P43354)", "T1 sequence (P43354 360-595 limits assumed)": "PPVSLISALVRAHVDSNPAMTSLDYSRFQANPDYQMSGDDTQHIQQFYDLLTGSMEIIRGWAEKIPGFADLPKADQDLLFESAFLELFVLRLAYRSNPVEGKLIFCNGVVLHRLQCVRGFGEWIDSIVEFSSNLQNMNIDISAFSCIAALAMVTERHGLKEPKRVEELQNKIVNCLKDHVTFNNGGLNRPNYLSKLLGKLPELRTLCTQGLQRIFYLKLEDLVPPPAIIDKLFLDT", "assay": "Hybrid Gal4-Nurr1 reporter gene assay in transiently transfected HEK293T cells", "type": "cell-based", "conditions": "for fold act. (maximum Nurr1 activation vs. DMSO (0.1 %)): purified compounds, mean±S.E.M., n≥3"}, "Nurr1 LBD": {"biological_target": "Nurr1 LBD (Homo sapiens, UniProt P43354)", "sequence (P43354 360-595 limits assumed)": "as above", "assay": "HTRF assay of Nurr1 LBD homodimerization", "type": "biochemical"}, "[2]": {"biological_target": "T1, human Nurr1 ligand binding domain (LBD) fused to the Gal4 DNA binding domain", "conditions": "for comparison; cited from earlier work"}}, "note": "Where “and” joins values, the source holds several entries; their conditions need not be identical. Identical values can stand only once. Entries after “also recorded” stand apart in the source; their conditions may differ. Like-named read-outs stand apart in the source and are kept apart here."}
{"smiles": "Clc1ccc(-c2ccc(CNc3ccnc4cc(Cl)ccc34)o2)cc1", "note": "[3 j, 7‐Chloro‐N‐((5‐(4‐chlorophenyl)furan‐2‐yl)methyl)quinolin‐4‐amine]", "values": [{"measurement": "EC50", "setting": "[1]", "result": "8 ± 1", "unit": "µM"}, {"measurement": "fold act. (maximum Nurr1 activation vs. DMSO (0.1 %))", "setting": "[1]", "result": "2.5±0.1", "unit": "fold"}, {"measurement": "effect on Nurr1 LBD homodimerization (HTRF)", "setting": "Nurr1 LBD", "result": "diminished dimerization; also recorded: diminished Nurr1 homodimerization"}]}
{"smiles": "CCN(CC)Cc1cc(Nc2ccnc3cc(Cl)ccc23)ccc1O", "note": "[AQ, amodiaquine]", "values": [{"measurement": "fold act. (maximum Nurr1 activation vs. DMSO (0.1 %))", "setting": "[2]", "result": "3.6 fold and 3.6±0.1 fold"}]}
{"smiles": "CCN(CC)CCCC(C)Nc1ccnc2cc(Cl)ccc12", "note": "(stereo not shown) [CQ, chloroquine]", "values": [{"measurement": "fold act. (maximum Nurr1 activation vs. DMSO (0.1 %))", "setting": "[2]", "result": "2.0±0.1", "unit": "fold"}]}
{"smiles": "Nc1ccnc2cc(Cl)ccc12", "note": "[compound 3, 4‐Amino‐7‐chloroquinoline]", "values": [{"measurement": "fold act. (maximum Nurr1 activation vs. DMSO (0.1 %))", "setting": "[2]", "result": "2.5 fold and 2.5±0.4 fold"}]}
{"smiles": "O=C(Nc1ccnc2cc(Cl)ccc12)c1ccc(-c2ccc(Cl)cc2)o1", "note": "[compound 4, 5‐(4‐Chlorophenyl)‐N‐(7‐chloroquinolin‐4‐yl)furan‐2‐carboxamide]", "values": [{"measurement": "EC50", "setting": "[1]", "result": "3 ± 0.1", "unit": "µM"}, {"measurement": "fold act. (maximum Nurr1 activation vs. DMSO (0.1 %))", "setting": "[1]", "result": "2.0±0.1", "unit": "fold"}]}
{"smiles": "Clc1ccc(-c2ccc(CN3CCOc4cc(Cl)ccc43)o2)cc1", "note": "[compound 5, 7‐Chloro‐4‐((5‐(4‐chlorophenyl)furan‐2‐yl)methyl)‐3,4‐dihydro‐2H‐benzo[b][1,4]oxazine]", "values": [{"measurement": "EC50", "setting": "[1]", "result": "47 ± 13", "unit": "µM"}, {"measurement": "fold act. (maximum Nurr1 activation vs. DMSO (0.1 %))", "setting": "[1]", "result": "2.0±0.2", "unit": "fold"}]}
